Entries after “also recorded” stand apart in the source; their conditions may differ. Where a name gives a salt, the structure may show the parent alone.
Assays:
[1] = system: Heart Failure induced by Myocardial Infarction; assay: Efficacy in heart failure induced by myocardial infarction (left coronary artery ligation), hemodynamic measurements and ventricle weight; assay type: in vivo, SD-SLC male rats
Method: Efficacy in Heart Failure induced by Myocardial Infarction SD-SLC male rats (body weight: 272 to 315 g) (purchased from Shizuoka Jikken Dobutsu Kyodo Kumiai) were used as test animals. Intercostal thoracotomy was made on the left chest of the rat anesthesized with pentobarbital (50 mg/kg, i.p.). The left coronary artery was then ligated at the position 2 to 3 mm away from its origin according to the method of Selye et al, Angiology, Vol. 11, 398 (1960). Immediately after confirming that the peripheral cardiac muscle of the open chest rat was involved in ischemia, the opening was closed, and the animal was fed on food and tap water ad lib. As a sham operation group, another group of rats received thoracotomy in the same manner as described above except for carrying out no ligation of the coronary artery. […] A control group orally received 5 ml/kg/day of ion-exchanged water only. On the next day of the final administration of Compound A, a catheter was inserted into the femoral artery and the left ventricle of the rat under anesthesia with Inactin (100 mg/kg, i.p.), and systemic mean blood pressure, maximum rate of increase of the intraventricular pressure (LV dp/dt max), contractile index (LV dp/dt max/p), left ventricular systolic pressure, left ventricular diastolic pressure and heart rate were measured. After completion of these measurements, the heart was excised and divided into the left ventricle (including the septum) and the right ventricle. The wet weight of each ventricle was measured.

[2] = system: rats; assay: Acute toxicity in rats (LD50), oral or intravenous; assay type: in vivo
Description: Acute toxicities of Compound A in rats through oral administration or intravenous injection were as follows.

[3] = system: Monocrotaline-Induced Heart Failure Model (Heart Failure induced by Pulmonary Hypertension); assay: Efficacy in Monocrotaline-induced heart failure model (heart failure induced by pulmonary hypertension); assay type: in vivo, SD-SLC male rats
Method: Efficacy in Monocrotaline-Induced Heart Failure Model (A Model of Heart Failure induced by Pulmonary Hypertension)
SD-SLC male rats (body weight: 160 to 190 g) were used. Monocrotaline was dissolved in 1N hydrochloric acid, and the solution was adjusted to a pH of 7.4 with a 1N sodium hydroxide aqueous solution. Distilled water was added thereto to make a 40 mg/ml solution. The solution was subcutaneously administered to the rats at a dose of 40 mg/kg to prepare right ventricular insufficient rats.
Another group of rats was subcutaneously administered with 1 ml/kg of physiological saline only and served as intact control.
Compound A was dissolved in distilled water. Six hours from the administration of Monocrotaline, the solution was orally administered to the test animals at a single daily dose of 10 mg/kg for consecutive 1 month (6 days per week). As a control group, the right ventricular insufficient rats orally received 5 ml/kg of distilled water only.
On the next day of the final administration of Compound A, a catheter was inserted into the right ventricle under anesthesia with pentobarbital (50 mg/kg, i.p.), and the right ventricular systolic pressure was measured. Thereafter, the heart was excised, divided into the left ventricle (including the septum) and the right ventricle, and the wet weight of each ventricle was determined. The results obtained are given in Table 3, as expressed as mean±S.E.

[4] = 10 mg/kg p.o. daily, 6 times per week, 1 month, mean±S.E., n = 7
[5] = 10 mg/kg p.o. daily, 6 times per week, 1 month, mean±S.E., n = 7, ** P < 0.01 vs sham, # P < 0.05 vs control group
[6] = coronary artery ligation, 1 month
[7] = wet weight after 10 mg/kg p.o. daily, 1 month, mean±S.E., n = 7, * P < 0.05 vs control group

## O=C(O)c1ccc2c(c1)CCC(Cn1ccnc1)C2 (stereo not shown) [Compound A, 6-(1-Imidazolylmethyl)-5,6,7,8-tetrahydronaphthalene-2-carboxylic acid hydrochloride hemihydrate]
[1]; [4]
  Heart Rate: 399 ± 14 min⁻¹
  Mean Blood Pressure: 132 ± 5 mmHg
[1]; 10 mg/kg p.o. daily, 6 times per week, 1 month, mean±S.E., n = 7, * P < 0.05 vs sham operation group
  Left Ventricular Systolic Pressure: 143 ± 6 mmHg
[1]; [5]
  Contractile Index (LV dp/dt max/p): 79 ± 5 s⁻¹
  Left Ventricular Diastolic Pressure: 12.0 ± 3.2 cmH2 O
[1]; [6]
  Contractile index (result in words): inhibition on reduction of contractile index
  Left ventricular diastolic pressure (result in words): inhibition on reduction of contractile index and on elevation of left ventricular diastolic pressure was observed
[1]; coronary artery ligation, 1 month, hydrochloride hemihydrate
  Ventricle weight / cardiac hypertrophy (result in words): increase of the ventricle weight can be suppressed significantly; also recorded: inhibit cardiac hypertrophy
[1]; long-term administration
  Blood pressure (result in words): without adversely affecting the blood pressure
  Cardiac contractility and pressure load to the heart (result in words): improved reduction of cardiac contractility and relieved pressure load to the heart
[1]; wet weight after 10 mg/kg p.o. daily, 1 month, mean±S.E., n = 7
  Weight of Ventricle, Right: 0.361 ± 0.028 g
[1]; [7]
  Weight of Ventricle, Left: 0.861 ± 0.029 g
  Weight of Ventricle, Total: 1.222 ± 0.052 g
[2]; female rats, i.v.
  LD50: 783 mg
[2]; female rats, p.o.
  LD50: 1994 mg
[2]; male rats, i.v.
  LD50: 807 mg
[2]; male rats, p.o.
  LD50: 2438 mg
[3]; 10 mg/kg p.o. daily, 6 days per week, 1 month, mean±S.E., N = 7, * P < 0.05 vs intact control, # P < 0.05 vs control group
  Right Ventricular Systolic Pressure: 46.9 ± 4.9 mmHg
[3]; 10 mg/kg p.o. daily, 6 days per week, 1 month, mean±S.E., N = 7, ** P < 0.01 vs intact control group
  Right Ventricle Weight/Left Ventricle Weight: 0.41 ± 0.04
[3]; Monocrotaline, 1 month
  Right ventricular hypertrophy / cardiac hypertrophy (result in words): showed a tendency to inhibit the right ventricular hypertrophy
  Right ventricular systolic pressure (result in words): significantly inhibited the increase in the right ventricular systolic pressure
[3]; long-term administration
  Improvement of heart failure induced by pulmonary hypertension (result in words): exhibited improvements of heart failure induced by pulmonary hypertension
